The term MIC denotes the smallest concentration in the dilution series that meets the test's criterion for growth inhibition.

The nature of the experiment: MIC of the examples against various organisms. The note with it: against at least two of the above organisms (12-strain panel). It counts as cell-based. Here is the method:
The MIC (μg/ml) of the examples against various organisms was determined: A. baumannii ATCC19606, E. cloacae ATCC23355, E. coli ATCC25922, K. pneumoniae ATCC27736, P. mirabilis ATCC29906, P. aeruginosa ATCC27853, S. maltophilia ATCC13637, S. aureus ATCC43300, S. epidermidis ATCC14990, S. haemolyticus ATCC29970, E. faecalis ATCC29212 and E. faecium ATC19434.
With `COc1ccc2nccc(NC(=O)C3CCCC(CNCc4cc5c(cc4F)SCC(=O)N5)C3)c2n1` (stereo not shown) [Example 24, 3-{[(7-Fluoro-3-oxo-3,4-dihydro-2H-benzo[1,4]thiazin-6-ylmethyl)-amino]-methyl}-cyclohexanecarboxylic acid (6-methoxy-[1,5]-naphthyridin-4-yl)-amide], the MIC was at most 2 µg/mL.

For the molecule `COc1ccc2ncc(Cl)c(C(O)CN3C4CCC3CC(NCc3ccc5nsnc5c3)C4)c2c1` (single isomer, unassigned) [Example 58, 2-{3-[(Benzo[1,2,5]thiadiazol-5-ylmethyl)-amino]-8-aza-bicyclo[3.2.1]oct-8-yl}-1-(3-chloro-6-methoxy-quinolin-4-yl)-ethanol], the MIC was at most 2 µg/mL.

Regarding `COc1ccc2nccc(NC(=O)C3CCCC(CNC/C=C/c4ccccc4)C3)c2n1` (stereo not shown) [Example 22, 3-[((E)-3-Phenyl-allylamino)-methyl]-cyclohexanecarboxylic acid (6-methoxy-[1,5]-naphthyridin-4-yl)-amide], the MIC was at most 2 µg/mL. The value for `COc1ccc2ncc(Cl)c(C(O)CN3CCOC(CNCc4ccc5c(c4)NC(=O)CS5)C3)c2c1` (single isomer, unassigned) [Example 76, 6-[({4-[2-(3-Chloro-6-methoxy-quinolin-4-yl)-2-hydroxy-ethyl]-morpholin-2-ylmethyl}-amino)-methyl]-4H-benzo[1,4]thiazin-3-one] was at most 2 µg/mL. Next, `COc1cnc2cccc(C(O)CN3CCCC(CNCc4ccc5c(c4)NC(=O)CO5)C3)c2c1` (single isomer, unassigned) [Example 45, 6-[({1-[2-Hydroxy-2-(3-methoxy-quinolin-5-yl)-ethyl]-piperidin-3-ylmethyl}-amino)-methyl]-4H-benzo[1,4]oxazin-3-one]: at most 2 µg/mL; `COc1ccc2nccc(C(O)CN3C4CCC3CC(NCc3ccc5c(c3)NC(=O)CS5)C4)c2n1` (single isomer, unassigned) [Example 13, 6-({8-[2-Hydroxy-2-(6-methoxy-[1,5]-naphthyridin-4-yl)-ethyl]-8-aza-bicyclo[3.2.1]oct-3-ylamino}-methyl)-4H-benzo[1,4]thiazin-3-one]: at most 2 µg/mL. Consider `COc1ccc2ncc(Cl)c(C(O)CN3C4CCC3CC(NCc3cc5c(cn3)OCCO5)C4)c2n1` (stereo not shown) [Example 30, 1-(3-Chloro-6-methoxy-[1,5]-naphthyridin-4-yl)-2-{3-[(2,3-dihydro-[1,4]dioxino[2,3-c]pyridin-7-ylmethyl)-amino]-8-aza-bicyclo[3.2.1]oct-8-yl}-ethanol], for which the MIC was at most 2 µg/mL. Turning to `COc1ccc2nccc(NC(=O)C3CCCC(CNCc4ccc5c(c4)NC(=O)CS5)C3)c2n1` (stereo not shown) [Example 16, 3-{[(3-Oxo-3,4-dihydro-2H-benzo[1,4]thiazin-6-ylmethyl)-amino]-methyl}-cyclohexanecarboxylic acid (6-methoxy-[1,5]-naphthyridin-4-yl)-amide], the MIC was at most 2 µg/mL. Next, `COc1ccc2nccc(C(O)CN3CCOC(CNCc4ccc5c(c4)NC(=O)CO5)C3)c2n1` (stereo not shown) [Example 34, 6-[({4-[2-Hydroxy-2-(6-methoxy-[1,5]naphthyridin-4-yl)-ethyl]-morpholin-2-ylmethyl}amino)-methyl]-4H-benzo[1,4]oxazin-3-one]: at most 2 µg/mL.

Turning to `COc1ccc2nccc(C(O)CN3C4CCC3CC(NC/C=C/c3ccccc3)C4)c2n1` (single isomer, unassigned) [Example 14, 1-(6-Methoxy-[1,5]-naphthyridin-4-yl)-2-[3-((E)-3-phenyl-allylamino)-8-aza-bicyclo[3.2.1]oct-8-yl]-ethanol], the MIC is at most 2 µg/mL. Next, `COc1ccc2cccc(NC(=O)C3CCCC(CNCc4ccc5c(n4)NC(=O)CS5)C3)c2n1` (stereo not shown) [Example 108, 3-{[(3-Oxo-3,4-dihydro-2H-pyrido[3,2-b][1,4]thiazin-6-ylmethyl)-amino]-methyl}-cyclohexanecarboxylic acid (2-methoxy-quinolin-8-yl)-amide]: at most 2 µg/mL; `COc1ccc2ncc(Cl)c(C(O)CN3CCCC(CNC/C=C/c4ccccc4)C3)c2c1` (single isomer, unassigned) [Example 69, 1-(3-Chloro-6-methoxy-quinolin-4-yl)-2-{3-[((E)-3-phenyl-allylamino)-methyl]-piperidin-1-yl}-ethanol]: at most 2 µg/mL; `COc1cnc2ccc(Cl)c(C(O)CN3CCCC(CNCc4ccc5c(c4)OCO5)C3)c2n1` (stereo not shown) [Example 94, 2-(3-{[(Benzo[1,3]dioxol-5-ylmethyl)-amino]-methyl}-piperidin-1-yl)-1-(6-chloro-3-methoxy-quinoxalin-5-yl)-ethanol]: at most 2 µg/mL. The value for `COc1ccc2ncc(Cl)c(C(O)CN3CCOC(CNCc4ccc5c(c4)NC(=O)CO5)C3)c2c1` (single isomer, unassigned) [Example 71, 6-[({4-[2-(3-Chloro-6-methoxy-quinolin-4-yl)-2-hydroxy-ethyl]-morpholin-2-ylmethyl}-amino)-methyl]-4H-benzo[1,4]oxazin-3-one] was at most 2 µg/mL. Next, `COc1cnc2cccc(C(O)CN3C4CCC3CC(NCc3ccc5c(c3)NC(=O)CS5)C4)c2n1` (stereo not shown) [Example 85, 6-({8-[2-Hydroxy-2-(3-methoxy-quinoxalin-5-yl)-ethyl]-8-aza-bicyclo[3.2.1]oct-3-ylamino}-methyl)-4H-benzo[1,4]thiazin-3-one]: at most 2 µg/mL. In the case of `COc1cnc2cccc(C(O)CN3C4CCC3CC(NCc3cc5c(cc3F)SCC(=O)N5)C4)c2n1` (stereo not shown) [Example 84, 7-Fluoro-6-({8-[2-hydroxy-2-(3-methoxy-quinoxalin-5-yl)-ethyl]-8-aza-bicyclo[3.2.1]oct-3-ylamino}-methyl)-4H-benzo[1,4]thiazin-3-one], the MIC is at most 2 µg/mL.

`COc1ccc2ncc(Cl)c(C(O)CN3CCOC(CNCc4ccc5nsnc5c4)C3)c2c1` (single isomer, unassigned) [Example 74, 2-(2-{[(Benzo[1,2,5]thiadiazol-5-ylmethyl)-amino]-methyl}-morpholin-4-yl)-1-(3-chloro-6-methoxy-quinolin-4-yl)-ethanol]: the MIC was at most 2 µg/mL. Next, `COc1cnc2cccc(C(O)CN3CCCC(CNCc4cc5c(cn4)OCCO5)C3)c2c1` (single isomer, unassigned) [Example 43, 2-(3-{[(2,3-Dihydro-[1,4]dioxino[2,3-c]pyridin-7-ylmethyl)-amino]-methyl}-piperidin-1-yl)-1-(3-methoxy-quinolin-5-yl)-ethanol]: at most 2 µg/mL; `COc1ccc2ncc(Cl)c(C(O)CN3C4CCC3CC(NCc3ccc5nsnc5c3)C4)c2n1` (stereo not shown) [Example 26, 2-{3-[(Benzo[1,2,5]thiadiazol-5-ylmethyl)-amino]-8-aza-bicyclo[3.2.1]oct-8-yl}-1-(3-chloro-6-methoxy-[1,5]-naphthyridin-4-yl)-ethanol]: at most 2 µg/mL; `COc1ccc2ncc(Cl)c(C(O)CN3C4CCC3CC(NCc3ccc5c(c3)NC(=O)CS5)C4)c2n1` (stereo not shown) [Example 29, 6-({8-[2-(3-Chloro-6-methoxy-[1,5]-naphthyridin-4-yl)-2-hydroxy-ethyl]-8-aza-bicyclo[3.2.1]oct-3-ylamino}-methyl)-4H-benzo[1,4]thiazin-3-one]: at most 2 µg/mL.

Consider `COc1ccc2nccc(C(O)CN3CCCC(CNCc4ccc5c(c4)OCCO5)C3)c2n1` (single isomer, unassigned) [Example 3, 2-(3-{[(2,3-Dihydro-benzo[1,4]dioxin-6-ylmethyl)-amino]-methyl}-piperidin-1-yl)-1-(6-methoxy-[1,5]-naphthyridin-4-yl)-ethanol], for which the MIC is at most 2 µg/mL. As for `COc1cnc2cccc(C(O)CN3C4CCC3CC(NCc3ccc5c(n3)NC(=O)CS5)C4)c2n1` (stereo not shown) [Example 79, 6-({8-[2-Hydroxy-2-(3-methoxy-quinoxalin-5-yl)-ethyl]-8-aza-bicyclo[3.2.1]oct-3-ylamino}-methyl)-4H-pyrido[3,2-b][1,4]thiazin-3-one], the MIC is at most 2 µg/mL. The value for `COc1ccc2nccc(NC(=O)C3CCCC(CNCc4ccc5c(c4)OCCO5)C3)c2n1` (stereo not shown) [Example 19, 3-{[(2,3-Dihydro-benzo[1,4]dioxin-6-ylmethyl)-amino]-methyl}-cyclohexanecarboxylic acid (6-methoxy-[1,5]-naphthyridin-4-yl)-amide] was at most 2 µg/mL. The value for `COc1cnc2cccc(C(O)CN3CCCC(CNCc4ccc5c(n4)NC(=O)CS5)C3)c2c1` (single isomer, unassigned) [Example 42, 6-[({1-[2-Hydroxy-2-(3-methoxy-quinolin-5-yl)-ethyl]-piperidin-3-ylmethyl}-amino)-methyl]-4H-pyrido[3,2-b][1,4]thiazin-3-one] was at most 2 µg/mL; that for `COc1ccc2ncc(Cl)c(C(O)CN3C4CCC3CC(NCc3ccc5c(c3)NC(=O)CS5)C4)c2c1` (single isomer, unassigned) [Example 57, 6-({8-[2-(3-Chloro-6-methoxy-quinolin-4-yl)-2-hydroxy-ethyl]-8-aza-bicyclo[3.2.1]oct-3-ylamino}-methyl)-4H-benzo[1,4]thiazin-3-one] was at most 2 µg/mL; that for `COc1ccc2nccc(C(O)CN3CCOC(CNCc4ccc5c(c4)OCCO5)C3)c2n1` (stereo not shown) [Example 31, 2-(2-{[(2,3-Dihydro-benzo[1,4]dioxin-6-ylmethyl)-amino]-methyl}-morpholin-4-yl)-1-(6-methoxy-[1,5]naphthyridin-4-yl)-ethanol] was at most 2 µg/mL. Next, `COc1cnc2cccc(C(O)CN3C4CCC3CC(NCc3ccc5c(c3)OCCO5)C4)c2n1` (stereo not shown) [Example 78, 2-{3-[(2,3-Dihydro-benzo[1,4]dioxin-6-ylmethyl)-amino]-8-aza-bicyclo[3.2.1]oct-8-yl}-1-(3-methoxy-quinoxalin-5-yl)-ethanol]: at most 2 µg/mL; `COc1cnc2cccc(C(O)CN3C4CCC3CC(NC/C=C/c3ccccc3)C4)c2c1` (stereo not shown) [Example 38, 1-(3-Methoxy-quinolin-5-yl)-2-[3-((E)-3-phenylallylamino)-8-aza-bicyclo[3.2.1]oct-8-yl]-ethanol]: at most 2 µg/mL.
